Legend:
Type in all cases: cell-based
M14 [1] = assay: NCI60 one-dose screen; conditions: Homo sapiens; M14, 10 μM, one-dose; read-out: Growth percent
Colon Cancer panel = assay: NCI60 five-dose screen, panel mean; conditions: Homo sapiens; mean over Colon Cancer panel; read-out: GI50 Mean
HCT-15 [2] = assay: NCI60 five-dose screen; conditions: Homo sapiens; HCT-15, Colon Cancer; read-out: GI50
CAKI-1 = assay: NCI60 one-dose screen; conditions: Homo sapiens; CAKI-1, 10 μM, one-dose; read-out: Growth percent
MCF7 = assay: NCI60 five-dose screen; conditions: Homo sapiens, MCF7, MCF7, Breast Cancer; read-out: GI50
MOLT-4 [3] = assay: NCI60 five-dose screen; conditions: Homo sapiens; MOLT-4, Leukemia; read-out: GI50
MDA-MB-468 = assay: NCI60 one-dose screen; conditions: Homo sapiens; MDA-MB-468, 10 μM, one-dose; read-out: Growth percent
HCC-2998 = assay: NCI60 one-dose screen; conditions: Homo sapiens; HCC-2998, 10 μM, one-dose; read-out: Growth percent
SW-620 = assay: NCI60 one-dose screen; conditions: Homo sapiens; SW-620, 10 μM, one-dose; read-out: Growth percent
NCI-H226 [4] = assay: NCI60 five-dose screen; conditions: Homo sapiens; NCI-H226, Non-small Cell Lung Cancer; read-out: GI50
KM12 = assay: NCI60 one-dose screen; conditions: Homo sapiens; KM12, 10 μM, one-dose; read-out: Growth percent
[5] = tested on: Non-small Cell Lung Cancer panel; assay: NCI60 five-dose screen, panel mean; conditions: Homo sapiens; mean over Non-small Cell Lung Cancer panel; read-out: GI50 Mean
SN12C = assay: NCI60 five-dose screen; conditions: Homo sapiens, Renal Cancer, read-out: GI50
OVCAR-8 [6] = assay: NCI60 one-dose screen; conditions: Homo sapiens; OVCAR-8, 10 μM, one-dose; read-out: Growth percent
HCT-116 = assay: NCI60 five-dose screen; conditions: Homo sapiens; HCT-116, Colon Cancer; read-out: GI50
MOLT-4 [7] = assay: NCI60 one-dose screen; conditions: Homo sapiens; MOLT-4, 10 μM, one-dose; read-out: Growth percent
Renal Cancer panel = assay: NCI60 five-dose screen, panel mean; conditions: Homo sapiens; mean over Renal Cancer panel; read-out: GI50 Mean
UACC-257 = assay: NCI60 five-dose screen; conditions: Homo sapiens, UACC-257, UACC-257, Melanoma; read-out: GI50
SNB-19 = assay: NCI60 five-dose screen; conditions: Homo sapiens, SNB-19, SNB-19, CNS Cancer; read-out: GI50
PC-3 = assay: NCI60 one-dose screen; conditions: Homo sapiens; PC-3, 10 μM, one-dose; read-out: Growth percent
SF-295 [8] = assay: NCI60 five-dose screen; conditions: Homo sapiens; SF-295, CNS Cancer; read-out: GI50
SK-MEL-28 = assay: NCI60 five-dose screen; conditions: Homo sapiens; SK-MEL-28, Melanoma; read-out: GI50
BT-549 [9] = assay: NCI60 five-dose screen; conditions: Homo sapiens; BT-549, Breast Cancer; read-out: GI50
A549/ATCC = assay: NCI60 five-dose screen; conditions: Homo sapiens; A549/ATCC, Non-small Cell Lung Cancer; read-out: GI50
OVCAR-3 = assay: NCI60 five-dose screen; conditions: Homo sapiens; OVCAR-3, Ovarian Cancer; read-out: GI50
Ovarian Cancer panel = assay: NCI60 five-dose screen, panel mean; conditions: Homo sapiens; mean over Ovarian Cancer panel; read-out: GI50 Mean
SK-MEL-5 = assay: NCI60 five-dose screen; conditions: Homo sapiens; SK-MEL-5, Melanoma; read-out: GI50
TK-10 = assay: NCI60 one-dose screen; conditions: Homo sapiens; TK-10, 10 μM, one-dose; read-out: Growth percent
SK-OV-3 = assay: NCI60 five-dose screen; conditions: Homo sapiens; SK-OV-3, Ovarian Cancer; read-out: GI50
SF-268 = assay: NCI60 one-dose screen; conditions: Homo sapiens; SF-268, 10 μM, one-dose; read-out: Growth percent
A498 = assay: NCI60 five-dose screen; conditions: Homo sapiens; A498, Renal Cancer; read-out: GI50
OVCAR-8 [10] = assay: NCI60 five-dose screen; conditions: Homo sapiens; OVCAR-8, Ovarian Cancer; read-out: GI50
MDA-MB-435 = assay: NCI60 five-dose screen; conditions: Homo sapiens; MDA-MB-435, Melanoma; read-out: GI50
COLO 205 = assay: NCI60 one-dose screen; conditions: Homo sapiens; COLO 205, 10 μM, one-dose; read-out: Growth percent
OVCAR-4 = assay: NCI60 five-dose screen; conditions: Homo sapiens; OVCAR-4, Ovarian Cancer; read-out: GI50
RXF 393 = assay: NCI60 one-dose screen; conditions: Homo sapiens; RXF 393, 10 μM, one-dose; read-out: Growth percent
NCI-H226 [11] = assay: NCI60 one-dose screen; conditions: Homo sapiens; NCI-H226, 10 μM, one-dose; read-out: Growth percent
HT29 [12] = assay: NCI60 one-dose screen; conditions: Homo sapiens, HT-29; HT29, 10 μM, one-dose; read-out: Growth percent
CNS Cancer panel = assay: NCI60 five-dose screen, panel mean; conditions: Homo sapiens; mean over CNS Cancer panel; read-out: GI50 Mean
786-0 = assay: NCI60 five-dose screen; conditions: Homo sapiens; 786-0, Renal Cancer; read-out: GI50
HT29 [13] = assay: NCI60 five-dose screen; conditions: Homo sapiens, HT-29; HT29, Colon Cancer; read-out: GI50
HCT-15 [14] = assay: NCI60 one-dose screen; conditions: Homo sapiens; HCT-15, 10 μM, one-dose; read-out: Growth percent
M14 [15] = assay: NCI60 five-dose screen; conditions: Homo sapiens; M14, Melanoma; read-out: GI50
NCI-H23 = assay: NCI60 one-dose screen; conditions: Homo sapiens; NCI-H23, 10 μM, one-dose; read-out: Growth percent
BT-549 [16] = assay: NCI60 one-dose screen; conditions: Homo sapiens; BT-549, 10 μM, one-dose; read-out: Growth percent
SF-295 [17] = assay: NCI60 one-dose screen; conditions: Homo sapiens; SF-295, 10 μM, one-dose; read-out: Growth percent
UACC-62 = assay: NCI60 five-dose screen; conditions: Homo sapiens; UACC-62, Melanoma; read-out: GI50

## CCC12C=CCN3CCC4(c5ccc(OC)cc5N(C)C4C(O)(C(=O)OC)C1OC(=O)c1ccc(C[P+](c4ccccc4)(c4ccccc4)c4ccccc4)cc1)C32 (centres unmarked) [compound 12]
M14 [1]
  activity at 10 µM: -73.9%
Colon Cancer panel
  GI50: 4690 nM
HCT-15 [2]
  GI50: 27400 nM
CAKI-1
  activity at 10 µM: -7.04%
MCF7
  GI50: 442 nM
MOLT-4 [3]
  GI50: 1470 nM
MDA-MB-468
  activity at 10 µM: -49.2%
HCC-2998
  activity at 10 µM: -74.6%
SW-620
  activity at 10 µM: -66%
NCI-H226 [4]
  GI50: 1540 nM
KM12
  activity at 10 µM: -65.8%
[5]
  GI50: 2050 nM
SN12C
  GI50: 708 nM
OVCAR-8 [6]
  activity at 10 µM: -18.5%
HCT-116
  GI50: 1590 nM
MOLT-4 [7]
  activity at 10 µM: -53%
Renal Cancer panel
  GI50: 8300 nM
UACC-257
  GI50: 918 nM
SNB-19
  GI50: 725 nM
PC-3
  activity at 10 µM: -21.9%
SF-295 [8]
  GI50: 2920 nM
SK-MEL-28
  GI50: 520 nM
BT-549 [9]
  GI50: 538 nM
A549/ATCC
  GI50: 2090 nM
OVCAR-3
  GI50: 704 nM
Ovarian Cancer panel
  GI50: 15800 nM
SK-MEL-5
  GI50: 1210 nM
TK-10
  activity at 10 µM: 21.4%
SK-OV-3
  GI50: 2700 nM
SF-268
  activity at 10 µM: -26.1%
A498
  GI50: 16400 nM
OVCAR-8 [10]
  GI50: 3180 nM
MDA-MB-435
  GI50: 483 nM
COLO 205
  activity at 10 µM: -87.2%
OVCAR-4
  GI50: 1050 nM
RXF 393
  activity at 10 µM: -61.8%
NCI-H226 [11]
  activity at 10 µM: -23.1%
HT29 [12]
  activity at 10 µM: -39.4%
CNS Cancer panel
  GI50: 1320 nM
786-0
  GI50: 3580 nM
HT29 [13]
  GI50: 541 nM
HCT-15 [14]
  activity at 10 µM: 90.1%
M14 [15]
  GI50: 1350 nM
NCI-H23
  activity at 10 µM: 0.48%
BT-549 [16]
  activity at 10 µM: -89.1%
SF-295 [17]
  activity at 10 µM: 5.9%
UACC-62
  GI50: 1030 nM

Reference: paper PMC12028158, “Synthesis and In Vitro Evaluation of the Anticancer Effect of Novel Phosphonium Vindoline Derivatives” (International Journal of Molecular Sciences, 2025)
